# Measured values taken from paper PMC9456400 (International Journal of Molecular Sciences, 2022).
# Tested on: Huh-7 cells
# Test: UHPLC-ESI-QTOF-MS/MS lipidomics
# Type: cell-based, human
# Settings: Huh-7 cells; SBN 100 µmol/L, lorlatinib 1 µmol/L; median
# Text: We then questioned whether lorlatinib used at concentrations efficacious against ALK-rearranged lung cancer cells but non-toxic to ALK-negative cells could promote substantial lipidome changes in Huh-7 cells (Figure 1B; Table 1). Accordingly, […], and the lipidome was characterized in a semi-targeted approach using a UHPLC-ESI-QTOF-MS/MS method, in which we matched mass spectra with commercial standards (SPLAH mix), databases such as METLIN-PCDL and Lipid MAPS (accessed on 1 July 2022), as well as corroboration of tentative lipid species upon obtaining their MS/MS spectrum. Representative chromatograms of lipidomic analyses in Huh-7 cells can be found in Figure S1.
# Lipid extraction, preparation of external calibration curves, and quality control approaches were carried out as described. Samples (2 μL) were injected directly into a 1290 Infinity UHPLC system coupled with a dual Agilent jet stream ESI source to a 6550 QTOF-MS instrument (Agilent Technologies, Santa Clara, CA, USA). UHPLC-ESI-QTOF-MS conditions, data analysis and indirect quantification of selected lipid species using MassHunter Qualitative Analysis B.07.00 software (Agilent Technologies), and corroboration of the tentative characterization of compound match entities using the Lipid Maps database (www.lipidmaps.org, accessed on 1 July 2022) and targeted MS/MS acquisition on LC-QTOF-MS instrument, have been previously described in detail.
# Differentially expressed lipid species from untargeted lipidomic data were analyzed by generating volcano plots indicating statistical significance versus magnitude of fold-change for each lipid species (cutoff of Benjamini–Hochberg corrected p-value < 0.05 and log2 fold-change > 1 or […]).
compound,measurement,value
"C[C@H]1Oc2cc(cnc2N)-c2c(nn(C)c2C#N)CN(C)C(=O)c2ccc(F)cc21 [lorlatinib, (10R)-7-amino-12-fluoro-2,10,16-trimethyl-15-oxo-10,15,16,17-tetrahydro-2H-8,4-(metheno)pyrazolo [4,3-h][2,5,11]-benzoxadiazacyclotetradecine-3-carbonitrile]",Relative concentration of PC 38:2,1.747 µmol/mg protein
same,Relative concentration of PC 38:3,2.875 µmol/mg protein
same,Relative concentration of PC 38:4,12.355 µmol/mg protein
same,Relative concentration of PC 38:5,12.838 µmol/mg protein
same,Relative concentration of PC 38:5e,0.193 µmol/mg protein
same,Relative concentration of PC 38:6,9.312 µmol/mg protein
same,Relative concentration of PC 38:6e,0.353 µmol/mg protein
same,Relative concentration of PC 40:4,0.298 µmol/mg protein
same,Relative concentration of PC 40:4e,0.087 µmol/mg protein
same,Relative concentration of PC 40:5,1.883 µmol/mg protein
same,Relative concentration of PC 40:6,2.981 µmol/mg protein
same,Relative concentration of PC 42:4e,0.056 µmol/mg protein
same,Relative concentration of PC 42:5e,0.118 µmol/mg protein
same,Relative concentration of PE 32:0,0.231 µmol/mg protein
same,Relative concentration of PE 36:4,15.311 µmol/mg protein
same,Relative concentration of PE 36:5e,1.339 µmol/mg protein
same,Relative concentration of PE 38:5e,0.649 µmol/mg protein
same,Relative concentration of SM 32:0,0.350 µmol/mg protein
same,Relative concentration of SM 32:1,2.087 µmol/mg protein
same,Relative concentration of SM 32:2,0.032 µmol/mg protein
same,Relative concentration of SM 33:1,1.877 µmol/mg protein
same,Relative concentration of SM 34:1,22.397 µmol/mg protein
same,Relative concentration of SM 34:2,1.973 µmol/mg protein
same,Relative concentration of SM 35:0,1.702 µmol/mg protein
same,Relative concentration of SM 35:1,0.803 µmol/mg protein
same,Relative concentration of SM 36:0,0.297 µmol/mg protein
same,Relative concentration of SM 36:1,1.764 µmol/mg protein
same,Relative concentration of SM 36:2,0.702 µmol/mg protein
same,Relative concentration of SM 38:1,0.595 µmol/mg protein
same,Relative concentration of SM 38:2,0.151 µmol/mg protein
same,Relative concentration of SM 39:1,0.210 µmol/mg protein
same,Relative concentration of SM 40:0,0.286 µmol/mg protein
same,Relative concentration of SM 40:1,1.575 µmol/mg protein
same,Relative concentration of SM 40:2,0.891 µmol/mg protein
same,Relative concentration of SM 41:1,0.637 µmol/mg protein
same,Relative concentration of SM 41:2,0.065 µmol/mg protein
same,Relative concentration of SM 42:1,2.064 µmol/mg protein
same,Relative concentration of SM 42:2,3.149 µmol/mg protein
same,Relative concentration of SM 42:3,0.805 µmol/mg protein
same,Relative concentration of SM 43:1,0.128 µmol/mg protein
same,Relative concentration of SM 43:2,0.358 µmol/mg protein
same,Relative concentration of TG 46:0,1.549 µmol/mg protein
same,Relative concentration of TG 46:1,2.111 µmol/mg protein
same,Relative concentration of TG 46:2,1.025 µmol/mg protein
same,Relative concentration of TG 48:0,2.372 µmol/mg protein
same,Relative concentration of TG 48:1,5.318 µmol/mg protein
same,Relative concentration of TG 48:2,4.451 µmol/mg protein
same,Relative concentration of TG 48:3,1.146 µmol/mg protein
same,Relative concentration of TG 50:0,1.142 µmol/mg protein
same,Relative concentration of TG 50:1,9.399 µmol/mg protein
same,Relative concentration of TG 50:2,11.302 µmol/mg protein
same,Relative concentration of TG 50:3,4.462 µmol/mg protein
same,Relative concentration of TG 50:4,1.054 µmol/mg protein
same,Relative concentration of TG 51:2,2.969 µmol/mg protein
same,Relative concentration of TG 52:1,3.455 µmol/mg protein
same,Relative concentration of TG 52:2,16.188 µmol/mg protein
same,Relative concentration of TG 52:3,12.354 µmol/mg protein
same,Relative concentration of TG 52:4,3.787 µmol/mg protein
same,Relative concentration of TG 52:5,1.312 µmol/mg protein
same,Relative concentration of TG 52:6,0.708 µmol/mg protein
same,Relative concentration of TG 54:2,3.515 µmol/mg protein
same,Relative concentration of TG 54:3,11.096 µmol/mg protein
same,Relative concentration of TG 54:4,6.556 µmol/mg protein
same,Relative concentration of TG 54:5,4.411 µmol/mg protein
